Tests used:
Settings in all cases: incubation time: 72 h
[1] = test system: BT-474; assay: normalised response (% of control), CellTox Green; higher = less cell death (100 = DMSO, 0 = benzethonium chloride kill control)
Procedure, shortened: (§1)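 After 72 h with compound in 384-well plates, breast cancer cell lines seeded as 20 µl suspension were read for CellTox Green fluorescence at 485/520 nm. CellTiter-Glo luminescence was then read after 10 min at room temperature. Compound was present at 5 concentrations in 10-fold steps over a 10,000-fold range set per compound, and plates were normalised to 0.1 % DMSO (100) and a positive kill control (0). Values are normalised signals, each at a single concentration.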

[2] = test system: BT-549; assay: as above
Procedure, shortened: as §1

[3] = test system: CAL-120; assay: as above
Procedure, shortened: as §1

[4] = test system: CAL-148; assay: as above
Procedure, shortened: as §1

[5] = test system: CAL-51; assay: as above
Procedure, shortened: as §1

[6] = test system: CAL-85-1; assay: as above
Procedure, shortened: as §1

[7] = test system: DU-4475; assay: as above
Procedure, shortened: as §1

[8] = test system: HCC1143; assay: as above
Procedure, shortened: as §1

[9] = test system: HCC1599; assay: as above
Procedure, shortened: as §1

[10] = test system: HCC1937; assay: as above
Procedure, shortened: as §1

[11] = test system: HDQ-P1; assay: as above
Procedure, shortened: as §1

[12] = test system: Hs578T; assay: as above
Procedure, shortened: as §1

[13] = test system: MCF-10A; assay: as above
Procedure, shortened: as §1

[14] = test system: MDA-MB-231; assay: as above
Procedure, shortened: as §1

[15] = test system: MDA-MB-436; assay: as above
Procedure, shortened: as §1

[16] = test system: MDA-MB-453; assay: as above
Procedure, shortened: as §1

[17] = test system: MDA-MB-468; assay: as above
Procedure, shortened: as §1

[18] = test system: MFM-223; assay: as above
Procedure, shortened: as §1

[19] = test system: BT-474; assay: normalised response (% of control), CellTiter-Glo; higher = more viable cells (100 = DMSO, 0 = benzethonium chloride kill control)
Procedure, shortened: as §1

[20] = test system: BT-549; assay: as above
Procedure, shortened: as §1

[21] = test system: CAL-120; assay: as above
Procedure, shortened: as §1

[22] = test system: CAL-148; assay: as above
Procedure, shortened: as §1

[23] = test system: CAL-51; assay: as above
Procedure, shortened: as §1

[24] = test system: CAL-85-1; assay: as above
Procedure, shortened: as §1

[25] = test system: DU-4475; assay: as above
Procedure, shortened: as §1

[26] = test system: HCC1143; assay: as above
Procedure, shortened: as §1

[27] = test system: HCC1599; assay: as above
Procedure, shortened: as §1

[28] = test system: HCC1937; assay: as above
Procedure, shortened: as §1

[29] = test system: HDQ-P1; assay: as above
Procedure, shortened: as §1

[30] = test system: Hs578T; assay: as above
Procedure, shortened: as §1

[31] = test system: MCF-10A; assay: as above
Procedure, shortened: as §1

[32] = test system: MDA-MB-231; assay: as above
Procedure, shortened: as §1

[33] = test system: MDA-MB-436; assay: as above
Procedure, shortened: as §1

[34] = test system: MDA-MB-453; assay: as above
Procedure, shortened: as §1

[35] = test system: MDA-MB-468; assay: as above
Procedure, shortened: as §1

[36] = test system: MFM-223; assay: as above
Procedure, shortened: as §1

[37] = test system: SK-BR-3; assay: as above
Procedure, shortened: as §1

[38] = test system: BT-474; assay: normalised response (% of control), CellTiter-Glo; higher = more viable cells (100 = DMSO, 0 = benzethonium chloride kill control); remark: listed apart in the source
Experimental: (§2)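 DSRT, 72 h incubation, CellTox Green / CellTiter-Glo readout. Signal is normalised to DMSO and benzethonium chloride controls. Value is the normalised response at dose 3.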

[39] = test system: BT-549; assay: as above; remark: listed apart in the source
Experimental: as §2

[40] = test system: CAL-120; assay: as above; remark: listed apart in the source
Experimental: as §2

[41] = test system: CAL-148; assay: as above; remark: listed apart in the source
Experimental: as §2

[42] = test system: CAL-51; assay: as above; remark: listed apart in the source
Experimental: as §2

[43] = test system: CAL-85-1; assay: as above; remark: listed apart in the source
Experimental: as §2

[44] = test system: DU-4475; assay: as above; remark: listed apart in the source
Experimental: as §2

[45] = test system: HCC1143; assay: as above; remark: listed apart in the source
Experimental: as §2

[46] = test system: HCC1599; assay: as above; remark: listed apart in the source
Experimental: as §2

[47] = test system: HCC1937; assay: as above; remark: listed apart in the source
Experimental: as §2

[48] = test system: HDQ-P1; assay: as above; remark: listed apart in the source
Experimental: as §2

[49] = test system: Hs578T; assay: as above; remark: listed apart in the source
Experimental: as §2

[50] = test system: MCF-10A; assay: as above; remark: listed apart in the source
Experimental: as §2

[51] = test system: MDA-MB-231; assay: as above; remark: listed apart in the source
Experimental: as §2

[52] = test system: MDA-MB-436; assay: as above; remark: listed apart in the source
Experimental: as §2

[53] = test system: MDA-MB-453; assay: as above; remark: listed apart in the source
Experimental: as §2

[54] = test system: MDA-MB-468; assay: as above; remark: listed apart in the source
Experimental: as §2

[55] = test system: MFM-223; assay: as above; remark: listed apart in the source
Experimental: as §2

[56] = test system: SK-BR-3; assay: as above; remark: listed apart in the source
Experimental: as §2

SMILES | normalised response [1] | normalised response [2] | normalised response [3] | normalised response [4] | normalised response [5] | normalised response [6] | normalised response [7] | normalised response [8] | normalised response [9] | normalised response [10] | normalised response [11] | normalised response [12] | normalised response [13] | normalised response [14] | normalised response [15] | normalised response [16] | normalised response [17] | normalised response [18] | normalised response [19] | normalised response [20] | also measured
CC(=O)O[C@]1(C(C)=O)CC[C@H]2[C@@H]3C=C(C)C4=CC(=O)CC[C@]4(C)[C@H]3CC[C@@]21C [Megestrol acetate] (1000 nM) | 97.6% | 108% | 101% | 104% | 115% | 104% | 99.1% | 116% | 96.8% | 58.1% | 106% | 98.8% | 103% | 110% | 57.4% | 105% | 141% | 101% | 111% | 109% | normalised response [21]: 98.2%; normalised response [22]: 92.4%; normalised response [23]: 124%; normalised response [24]: 100%; normalised response [25]: 102%; normalised response [26]: 103%; normalised response [27]: 111%; normalised response [28]: 110%; normalised response [29]: 104%; normalised response [30]: 105%; normalised response [31]: 121%; normalised response [32]: 118%; normalised response [33]: 101%; normalised response [34]: 95.8%; normalised response [35]: 95.4%; normalised response [36]: 96.6%; normalised response [37]: 93.8%
CCN1CCN(c2ccc(Nc3cc(N(C)C(=O)Nc4c(Cl)c(OC)cc(OC)c4Cl)ncn3)cc2)CC1 [NVP-BGJ398] (100 nM) | 98.1% | 99.1% | 90.8% | 104% | 111% | 108% | 99.3% | 111% | 95.3% | 112% | 73% | 91% | 101% | 104% | 99.7% | 103% | 89.7% | 95.7% | 94.5% | 94.3% | normalised response [21]: 84.7%; normalised response [22]: 92.6%; normalised response [23]: 112%; normalised response [24]: 97.3%; normalised response [25]: 101%; normalised response [26]: 97.7%; normalised response [27]: 102%; normalised response [28]: 98.8%; normalised response [29]: 101%; normalised response [30]: 95.8%; normalised response [31]: 103%; normalised response [32]: 96.1%; normalised response [33]: 93.4%; normalised response [34]: 104%; normalised response [35]: 97.1%; normalised response [36]: 63.3%; normalised response [37]: 97.5%
O=C(c1ccc(C(=O)N2CCC(N3CCCC3)CC2)c(Nc2ccccc2)c1)N1CCC(N2CCCC2)CC1 [UNC1215] (300 nM) | 101% | 94.4% | 101% | 104% | 77.2% | 98.7% | 101% | 93.9% | 93.7% | 85.9% | – | – | 86.4% | 90.9% | 65.3% | 100% | 129% | – | – | – | normalised response [38]: 98.3%; normalised response [39]: 96.7%; normalised response [40]: 96.7%; normalised response [41]: 93.6%; normalised response [42]: 62.6%; normalised response [43]: 99.5%; normalised response [44]: 99.5%; normalised response [45]: 95%; normalised response [46]: 93.2%; normalised response [47]: 92.7%; normalised response [48]: 97.6%; normalised response [49]: 98%; normalised response [50]: 94.5%; normalised response [51]: 99.1%; normalised response [52]: 99.7%; normalised response [53]: 104%; normalised response [54]: 90%; normalised response [55]: 97.7%; normalised response [56]: 94%
